Literature values, collected in PubChem BioAssay AID1259409 (Chemical Carcinogenesis Research Information System (CCRIS), 2018).

Tested on: rodent chemically induced tumor inhibition, incidence and multiplicity
Assay: CCRIS tumor inhibitor studies
Settings: Dose [Inhibitor]: 0, Promoter: NONE USED

## COc1ccc(-c2coc3cc(O)cc(O)c3c2=O)cc1
Carcinogen: BENZO[A]PYRENE, 50-32-8, 0.125 MG IN 0.1 ML DMSO 3/WK FOR 6 WK AFTER WEANING (STUDY DURATION: 9 WK), Route [Inhibitor]: INTRAPERITONEAL, Species: MOUSE, Strain/Sex: SWISS WEBSTER/MALE, FEMALE, Target Tissue: Type of Lesion: LUNG: ADENOMA, Dose [Carcinogen]: 0.5 MG IN AQUEOUS GELATIN WITHIN 24 HRS AFTER BIRTH
  tumour outcome (control, treated, inhibition, significance): 20/35 (57%), 2/16 (13%), 77%, p<0.01
Carcinogen: BENZO[A]PYRENE, 50-32-8, 0.125 MG IN 0.1 ML DMSO 3/WK FOR 6 WK AFTER WEANING (STUDY DURATION: 9 WK), Route [Inhibitor]: INTRAPERITONEAL, Species: MOUSE, Strain/Sex: SWISS/FEMALE, Target Tissue: Type of Lesion: LUNG: ADENOMA, Dose [Carcinogen]: 0.5 MG IN 1% AQUEOUS GELATIN TO 24 HR OLD MICE ONCE
  tumour outcome (control, treated, inhibition, significance): 11/19 (58%), 2/16 (13%), 78%, p<0.01
Carcinogen: BENZO[A]PYRENE, 50-32-8, 500 MG/KG IN 0.1 ML DMSO 2 D PRIOR TO EACH CARCINOGEN DOSE 1/WK FOR 4 WK (STUDY DURATION: 30 WK), Route [Inhibitor]: GAVAGE, Species: MOUSE, Strain/Sex: SWISS/FEMALE, Target Tissue: Type of Lesion: FORESTOMACH: CARCINOMA, Dose [Carcinogen]: 3 MG IN 0.2 ML CORN OIL 1/WK FOR 4 WK
  tumour outcome (control, treated, inhibition, significance): 13/26 (50%), 4/24 (17%), 66%, p<0.02
Carcinogen: BENZO[A]PYRENE, 50-32-8, 500 MG/KG IN 0.1 ML DMSO 2 D PRIOR TO EACH CARCINOGEN DOSE 1/WK FOR 4 WK (STUDY DURATION: 30 WK), Route [Inhibitor]: GAVAGE, Species: MOUSE, Strain/Sex: SWISS/FEMALE, Target Tissue: Type of Lesion: FORESTOMACH: PAPILLOMA, Dose [Carcinogen]: 3 MG IN 0.2 ML CORN OIL 1/WK FOR 4 WK
  tumour outcome (control, treated, inhibition, significance): 25/26 (96%), 21/24 (88%), 8%, not calculated
Carcinogen: BENZO[A]PYRENE, 50-32-8, 500 MG/KG IN 0.1 ML DMSO 2 D PRIOR TO EACH CARCINOGEN DOSE 1/WK FOR 4 WK (STUDY DURATION: 30 WK), Route [Inhibitor]: GAVAGE, Species: MOUSE, Strain/Sex: SWISS/FEMALE, Target Tissue: Type of Lesion: LUNG: ADENOMA, Dose [Carcinogen]: 3 MG IN 0.2 ML CORN OIL 1/WK FOR 4/WK
  tumour outcome (control, treated, inhibition, significance): 24/26 (92%), 20/24 (83%), 10%, not calculated
Carcinogen: N-METHYL-N-NITROSOUREA, 684-93-5, 10 MG/KG IN DIET FOR DURATION OF STUDY BEGINNING POST CARCINOGEN DOSE (STUDY DURATION: 18 WK), Route [Inhibitor]: ORAL, Species: RAT, Strain/Sex: SPRAGUE-DAWLEY/FEMALE, Target Tissue: Type of Lesion: MAMMARY GLAND: TUMOR, Dose [Carcinogen]: 40 MG/KG BW ONCE
  tumour outcome (control, treated, inhibition, significance): 16/20 (80%), 11/19 (58%), 28%, not calculated
Carcinogen: N-METHYL-N-NITROSOUREA, 684-93-5, 50 MG/KG IN DIET FOR DURATION OF STUDY BEGINNING POST CARCINOGEN DOSE (STUDY DURATION: 18 WK), Route [Inhibitor]: ORAL, Species: RAT, Strain/Sex: SPRAGUE-DAWLEY/FEMALE, Target Tissue: Type of Lesion: MAMMARY GLAND: TUMOR, Dose [Carcinogen]: 40 MG/KG BW ONCE
  tumour outcome (control, treated, inhibition, significance): 16/20 (80%), 6/19 (32%), 60%, p<0.01
